Read-outs that look alike come from different tables or passages of the source. Bridge positions count the residues as written; N and C are the ends. Square brackets hold non-standard residues; d marks the D form. Ends that are not written are not given here. 2Nal = N[C@@H](Cc1ccc2ccccc2c1)C(=O)O
Experiments:
[1] = system: endothelin-3; experiment: Effect against airway contraction due to endothelin in anesthetized guinea pigs; format: in vivo; conditions: guinea pig; for Rate of inhibition (%) of airway contraction, earlier phase 30 seconds: 30 seconds after endothelin-3; for Rate of inhibition (%) of airway contraction, later phase 3 minutes: 3 minutes after endothelin-3
Method: The in vivo effect of the compounds according to the present invention against airway contraction was evaluated according to a slightly modified version of the method of C. Touvay et al. described in European Journal of Pharmacology, 176, 23-33, 1990. That is, male Hartley guinea pigs weighing 350 to 550 grams each which had been previously β-blocked by intravenous injection of propranolol (3 mg/kg) were anesthetized, bronchial cannula were inserted therein and fixed, and connected to an artificial respirator. Next, spontaneous breathing was stopped with 10 mg/kg Gallamine triethiodide (product of sigma Co.), administered intravenously after which artificial respiration was initiated at a determined rate. A respiration volume measuring device was connected to the bronchial cannula bypass, and the change in the air flow was measured as an indication of airway contraction. Endothelin-3 (1.5 μmol/l; product of Peptide Institute, Inc.) was intravenously injected at a dose of 0.1 ml per 100 g body weight. Airway contraction (air flow increase) was observed immediately after injection, and was followed by a diphasic airway contraction reaction with an early and late phase which peaked at 30 seconds and 3 minutes, respectively.
Rate of inhibition (%)=(1−b/a)×100 a: Airway contraction without injection of Compound (I-1) (control) b: Airway contraction with injection of Compound (I-1)

[2] = target: T1, endothelin receptor (Bos taurus, UniProt P28088); experiment: Endothelin receptor-antagonizing effect: 125I-endothelin-1 binding to bovine cerebellar tissue membrane fraction
T1 construct: from tissue; host or cells: bovine cerebellar membrane fraction
T1 sequence (P28088 27-441): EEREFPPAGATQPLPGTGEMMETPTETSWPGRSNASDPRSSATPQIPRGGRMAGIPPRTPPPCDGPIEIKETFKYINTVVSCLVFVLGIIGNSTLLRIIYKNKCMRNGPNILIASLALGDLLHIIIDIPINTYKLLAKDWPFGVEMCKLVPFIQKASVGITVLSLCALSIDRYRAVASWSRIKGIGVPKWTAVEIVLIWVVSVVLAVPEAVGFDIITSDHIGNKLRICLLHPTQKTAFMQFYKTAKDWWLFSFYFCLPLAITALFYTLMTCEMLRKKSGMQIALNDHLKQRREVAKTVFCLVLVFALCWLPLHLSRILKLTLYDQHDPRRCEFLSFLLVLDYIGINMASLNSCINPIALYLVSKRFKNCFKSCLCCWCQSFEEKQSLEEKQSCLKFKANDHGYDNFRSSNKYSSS

[3] = target: T2, endothelin receptor (Bos taurus, UniProt P21450); experiment: Endothelin receptor-antagonizing activity: 125I-endothelin-1 binding to bovine lung membrane fraction with […] Compound (I-1) added
T2 construct: the suspension was used as the membrane fraction liquid; from tissue
T2 sequence (P21450 21-427): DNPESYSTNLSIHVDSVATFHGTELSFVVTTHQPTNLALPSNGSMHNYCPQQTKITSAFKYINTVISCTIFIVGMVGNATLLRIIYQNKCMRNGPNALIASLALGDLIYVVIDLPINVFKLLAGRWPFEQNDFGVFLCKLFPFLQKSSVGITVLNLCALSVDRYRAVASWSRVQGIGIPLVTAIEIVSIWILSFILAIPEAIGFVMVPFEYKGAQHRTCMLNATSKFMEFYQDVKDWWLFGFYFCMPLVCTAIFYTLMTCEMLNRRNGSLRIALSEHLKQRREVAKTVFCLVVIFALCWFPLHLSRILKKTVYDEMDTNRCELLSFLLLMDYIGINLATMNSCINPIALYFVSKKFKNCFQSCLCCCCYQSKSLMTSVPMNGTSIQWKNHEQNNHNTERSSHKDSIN
Method: Bovine lung tissue was homogenized at 4° C. using POLYTRON (type PT10/35, manufactured by Kinematica GmbH Co.) in a buffer solution A (pH 8.3) comprising 1 mM NaHCO3, 5 mM ethylenediaminetetraacetic acid, 5 μg/ml leupeptin, 5 μg/ml pepstatin A and 40 μM phenylmethylsulfonyl fluoride.
The inhibition rate against endothelin receptor binding activity was calculated according to the following equation.
Inhibition rate=(C−A/C−B)=100 (%)

[4] = target: endothelin receptor of bovine cerebellar tissue (membrane fraction) (bovine); experiment: 125I-endothelin-1 displacement, bovine cerebellar membrane fraction
[5] = target: endothelin receptor of bovine cerebellar tissue (membrane fraction) (bovine); experiment: as above; remark: listed apart in the source
[6] = target: endothelin receptor of bovine lung tissue (membrane fraction) (bovine); experiment: 125I-endothelin-1 displacement, bovine lung membrane fraction with 1.5 ug/ml Compound (I-1) added

## C[C@@H]1NC(=O)[C@H]([C@@H](C)O)NC(=O)CNC(=O)[C@H](Cc2c[nH]cn2)NC(=O)[C@H](Cc2c[nH]c3ccccc23)NC(=O)[C@H](CC(N)=O)NC(=O)CNC(=O)C[C@@H](C(=O)N[C@@H](Cc2c[nH]c3ccccc23)C(=O)N[C@@H](Cc2ccccc2)C(=O)N[C@@H](Cc2ccccc2)C(=O)N[C@@H](CC(N)=O)C(=O)N[C@@H](Cc2ccc(O)cc2)C(=O)N[C@@H](Cc2ccc(O)cc2)C(=O)N[C@@H](Cc2c[nH]c3ccccc23)C(=O)O)NC(=O)[C@@H]2CCCN2C1=O [Compound I-1]
[1]; 0.1 mg/kg i.v.
  Rate of inhibition (%) of airway contraction, earlier phase 30 seconds: 12.5%
  Rate of inhibition (%) of airway contraction, later phase 3 minutes: 44.0%
[1]; 0.3 mg/kg i.v.
  Rate of inhibition (%) of airway contraction, earlier phase 30 seconds: 46.0%
  Rate of inhibition (%) of airway contraction, later phase 3 minutes: 52.7%
[1]; 1.0 mg/kg i.v.
  Rate of inhibition (%) of airway contraction, earlier phase 30 seconds: 91.8%
  Rate of inhibition (%) of airway contraction, later phase 3 minutes: 78.2%

## CC[C@H](C)[C@H](NC(=O)[C@H](CC(=O)O)NC(=O)[C@H](CC(C)C)NC(=O)[C@H](Cc1c[nH]cn1)NC(=O)[C@H](C)NC(=O)[C@H](Cc1ccccc1)NC(=O)[C@H](Cc1ccc(O)cc1)NC(=O)[C@@H](NC(=O)[C@H](Cc1c[nH]c2ccccc12)NC(=O)[C@H](CC(=O)O)NC(=O)[C@@H]1CCCN1C(=O)[C@H](C)NC(=O)[C@@H](NC(=O)CNC(=O)[C@H](Cc1c[nH]cn1)NC(=O)[C@H](Cc1c[nH]c2ccccc12)NC(=O)[C@H](CC(=O)O)NC(=O)CN)[C@@H](C)O)C(C)C)C(=O)N[C@H](C(=O)N[C@@H](Cc1c[nH]c2ccccc12)C(=O)O)[C@@H](C)CC [Compound I-43]
[2]
  IC50: 0.63 nM

## CC[C@H](C)[C@H](NC(=O)[C@H](CC(=O)O)NC(=O)[C@H](CC(C)C)NC(=O)[C@H](Cc1c[nH]cn1)NC(=O)[C@H](C)NC(=O)[C@H](Cc1ccccc1)NC(=O)[C@H](Cc1ccc(O)cc1)NC(=O)[C@@H](NC(=O)[C@H](Cc1c[nH]c2ccccc12)NC(=O)[C@H](CC(=O)O)NC(=O)[C@@H]1CCCN1C(=O)[C@H](C)NC(=O)[C@@H](NC(=O)CNC(=O)[C@H](CCCCN)NC(=O)[C@H](Cc1c[nH]c2ccccc12)NC(=O)[C@H](CC(N)=O)NC(=O)CN)[C@@H](C)O)C(C)C)C(=O)N[C@H](C(=O)N[C@@H](Cc1c[nH]c2ccccc12)C(=O)O)[C@@H](C)CC [Compound I-44]
[2]
  IC50: 0.29 nM

## C[C@@H]1NC(=O)[C@H]([C@@H](C)O)NC(=O)CNC(=O)[C@H](Cc2c[nH]cn2)NC(=O)[C@H](Cc2c[nH]c3ccccc23)NC(=O)[C@H](CC(N)=O)NC(=O)CNC(=O)C[C@@H](C(=O)N[C@@H](Cc2c[nH]c3ccccc23)C(=O)N[C@@H](Cc2ccccc2)C(=O)N[C@@H](Cc2ccccc2)C(=O)N[C@@H](CC(N)=O)C(=O)N[C@@H](Cc2ccc(O)cc2)C(=O)N[C@@H](Cc2ccc(O)cc2)C(=O)N[C@@H](Cc2c[nH]c3ccccc23)C(=O)OCc2ccccc2)NC(=O)[C@@H]2CCCN2C1=O [Compound I-47]
[3]
  IC50: > 470 nM
[2]; bovine cerebellar tissue membrane fraction
  IC50: 140 nM

## C[C@@H]1NC(=O)[C@H]([C@@H](C)O)NC(=O)CNC(=O)[C@H](Cc2c[nH]cn2)NC(=O)[C@H](Cc2c[nH]c3ccccc23)NC(=O)[C@H](CC(N)=O)NC(=O)CNC(=O)C[C@@H](C(=O)N[C@@H](Cc2c[nH]c3ccccc23)C(=O)N[C@@H](Cc2ccccc2)C(=O)N[C@@H](Cc2ccccc2)C(=O)N[C@@H](CC(N)=O)C(=O)N[C@@H](Cc2ccc(O)cc2)C(=O)N[C@@H](Cc2ccc(O)cc2)C(=O)N[C@@H](Cc2ccc3ccccc3c2)C(=O)O)NC(=O)[C@@H]2CCCN2C1=O [Compound I-49]
[2]
  IC50: 6.3 nM

## GNWHGTAPDWFFNYYWW (lactam N-9) [Compound (I-18)]
[4]
  IC50: 36 nM

## GNWHGTAPDWFFNYYWVYFAHLDIIW (lactam N-9) [Compound (I-20)]
[4]
  IC50: 300 nM

## GNWHGTAPDWFFNYYWWFFNYYW (lactam N-9) [Compound (I-19)]
[4]
  IC50: 370 nM

## GNWHGTAPDWFFNYY (lactam N-9) [Compound (I-17)]
[4]
  IC50: 54 nM

## GNWHGTSPDWFFNYYW (modifications not checked) [Compound (I-3)]
[5]
  IC50: 5 nM

B1: Compound (I-45) (peptide)
peptide: GNWHGTAPDWFFNYY
modifications: lactam Gly 1 N-terminus to Asp 9 side chain; C-terminal carboxyl of Tyr 15 amidated with Trn, 2-(3-indolyl)ethylamine
[4]
  IC50: 50 nM
[6]
  IC50: 300 nM

## GNWHGTAPDWFFNYY[2Nal]-OH (lactam N-9) [Compound (I-49)]
[4]
  IC50: 6.3 nM

— patent US6642355B2, “Endothelin-antagonizing peptide” (priority 1991, dated 2003)
